Patent US11207409B2, “X-RAY psoralen activated cancer therapy (X-PACT) with associated treatments” (priority 2017, dated 2021)

Test system: murine tumor cell lines (breast-4T1, glioma-CT2A, and sarcoma KP15B8)
Method: Guava Annexin V flow cell cytometry was used to quantify cytotoxicity in 3 murine tumor cell lines (breast-4T1, glioma-CT2A, and sarcoma KP15B8). In-vitro X-PACT studies were conducted on cells prepared in the following manner. Cells were incubated in appropriate growing media and buffers before being trypsinized and plated evenly onto twelve (12) well plates for 24 hours. About 20 minutes prior to X-PACT irradiation, the wells of each plate were exposed to the following combinations of additives: (1) control ˜cells only with no additives, (2) UVADEX only, (3) phosphors only, (4) UVADEX+phosphors. […] The plates were then irradiated with x-rays by placing the plate at a known distance from the x-ray source (e.g., 50 cm). […]
Two primary flow cytometry metrics were used to evaluate the X-PACT treatments, both determined at 48h after X-PACT treatment. […] The first metric is metabolically viable cell count (or cell viability) determined from the number of whole cells per well as determined using forward scattering (FSC). […] (All wells on a given plate receive the same dose.) The second metric is Annexin V (+) signal, which is the fraction of the metabolically viable cells which expressed a positive Annexin V signal as determined by flow cell cytometry, and include any cells advancing toward early or late apoptotic cell death. […]

| Substance | % Viability (1-Toxicity) [%] |
| --- | --- |
| 3Ca3(PO4)2•Ca(Fl,Cl)2:Sb^3+,Mn^2+ [GTP 4300] | 70 |
| Zn2SiO4:Mn | 75 |
